In assay [1] the test system is STEME = Stellaria media (L.) Vill. (common chickweed). Kind of assay: Small plot field trial in winter wheat, foliar-applied, visual % control of STEME. The assay is classed as in vivo. The settings on record: Trial 1, observed mean, 200 L/ha water, winter wheat crop stage 12-13, rates: isoxaben 40 g ai/ha, aminopyralid 5 g ae/ha, flufenacet 200 g ai/ha, diflufenican 100 g ai/ha. The source says:
(§1) Results in Table 1 are for foliar-applied compositions in small plot research experiments to evaluate the efficacy of the compositions in winter wheat. Application water volume was 200 liters per hectare (L/ha). Crop stage at time of application was 12-13. The values reported are means. […] Colby's equation was used to determine the herbicidal effects expected from the mixtures (Colby, S. R. Calculation of the synergistic and antagonistic response of herbicide combinations. Weeds 1967, 15, 20-22.).
(§2) More specifically, the following equation is used to calculate the expected activity of mixtures containing two herbicical active ingredients: Expected=A+B−(A×B/100) • A=observed efficacy of a first active ingredient at the same concentration as used in the mixture; • B=observed efficacy of the second active ingredient (or product, which may contain a combination of active ingredients) at the same concentration as used in the mixture. For mixtures containing three herbicidal active ingredients, the following equation was used to calculate the expected activity:
(§3) [formula] • A=observed efficacy of a first active ingredient at the same concentration as used in the mixture; • B=observed efficacy of a second active ingredient B at the same concentration as used in the mixture; • C=observed efficacy of a third active ingredient C at the same concentration as used in the mixture. The following abbreviations are used in Table 1: • GERDI=Geranium dissectum (cutleaf geranium) • STEME=Stellaria media (L.) Vill. (common chickweed) • g ai/ha=grams active ingredient per hectare • g ae/ha=grams acid equivalent per hectare • Ob=observed value of percent (%) control rated visually • Ex=expected value of percent (%) control as calculated by Colby's equation

The test system of assay [2] is GERDI = Geranium dissectum (cutleaf geranium). Kind of assay: Small plot field trial in winter wheat, foliar-applied, visual % control of GERDI. The class given is in vivo. The settings on record: Trial 1, observed mean, 200 L/ha water, winter wheat crop stage 12-13, rates: isoxaben 40 g ai/ha, aminopyralid 5 g ae/ha, flufenacet 200 g ai/ha, diflufenican 100 g ai/ha.
Excerpt: as §1, §2, §3

The structures appear in SMILES notation.

Regarding `CC(C)N(C(=O)COc1nnc(C(F)(F)F)s1)c1ccc(F)cc1` [flufenacet, N-(4-fluorophenyl)-N-(1-methylethyl)-2-[[5-(trifluoromethyl)-1,3,4-thiadiazol-2-yl]oxy]acetamide], in assay [1], the “VISUAL % CONTROL OF STEME 28 DAT Ob” value was found to be 0 e %. Further, in assay [2], the “VISUAL % CONTROL OF GERDI 28 DAT Ob” value was determined as 0 d %.

On to `Nc1cc(Cl)nc(C(=O)O)c1Cl` [aminopyralid, 4-amino-3,6-dichloropyridine-2-carboxylic acid], for which the “VISUAL % CONTROL OF STEME 28 DAT Ob” value in assay [1] worked out at 0 e %. In addition, the “VISUAL % CONTROL OF GERDI 28 DAT Ob” value in assay [2] is recorded as 0 d %.

Regarding `CCC(C)(CC)c1cc(NC(=O)c2c(OC)cccc2OC)on1` [isoxaben, N-[3-(1-ethyl-1-methylpropyl)isoxazol-5-yl]-2,6-dimethoxybenzamide], the “VISUAL % CONTROL OF STEME 28 DAT Ob” value in assay [1] was 0 e %. Besides, the “VISUAL % CONTROL OF GERDI 28 DAT Ob” value in assay [2] turned out to be 0 d %.

The values above are taken from patent US9730444B2, “Herbicidal compositions comprising isoxaben and aminopyralid” (Dow AgroSciences LLC, priority 2013, dated 2017).
